{"source": "the supplement of paper PMC11208160", "data": [{"assay": "recombinant barcode read abundance after kanamycin selection (control-corrected) (log10(CPM+1)); higher = more efficient recombination; sequences stand for … in AGTGCAGAGAAAATCGGCCAGTTTTCTCTGCCTGCAGTCCGCATGCCGT…AGATTTATGCAGCGGACTGCCTTTCTCCCAAAGTGATAAACCGGACAGTATCATGGACCGGTTTTCCCGGTAATCCGTATTTGCAAGGTTGGTTTCACT; site = the 11-nt target", "experimental": "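Pooled E. coli target-specificity screen for the IS621 bridge recombinase. Each library plasmid pairs an 11-nt target (CT core) with a bridge RNA whose target-binding loop (9-nt LTG + 4-nt RTG) is reprogrammed; the rest of the 177-nt WT IS621 bridge RNA scaffold is fixed. The plasmid is co-electroporated with a WT donor plasmid; recombinase is induced with 0.1 mM IPTG and recombinants are selected on kanamycin. Recombinant barcodes are sequenced, converted to CPM, averaged over two biological replicates and corrected by the unselected control CPM. Molecule = full bridge RNA written as DNA: LTG = specificity nt 1-9, RTG = reverse complement of specificity nt 8-11, in the WT scaffold.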", "values": [{"sequence": "GGTCTGCCTTGGGTTCTAACCTGTTGCCT (site CGTCTGCCTAG)", "recombinant barcode read abundance (log10)": 0.252}, {"sequence": "AGCCGCCCTTGGGTTCTAACCTGTTGCAT (site CGCCGCCCTAG)", "recombinant barcode read abundance (log10)": 0.119}, {"sequence": "GTTTCGACTTGGGTTCTAACCTGTTGCTA (site TCGGATGCTAT)", "recombinant barcode read abundance (log10)": 0.188}, {"sequence": "AGGTGTTCTTGGGTTCTAACCTGTTGCCT (site AGGTGTTCTAG)", "recombinant barcode read abundance (log10)": 0.716}, {"sequence": "GATCAACCTTGGGTTCTAACCTGTTGCCT (site GGTCAACCTAG)", "recombinant barcode read abundance (log10)": 0.0197}, {"sequence": "GAAGCCGCTTGGGTTCTAACCTGTTGCCT (site GAAGCCGCTAG)", "recombinant barcode read abundance (log10)": 2.26}, {"sequence": "AGTCTAGCTTGGGTTCTAACCTGTTGCCG (site AGTCTAGCTAG)", "recombinant barcode read abundance (log10)": 0.083}, {"sequence": "AAGGGTTCTTGGGTTCTAACCTGTTGCCA (site ACGGGTACTTG)", "recombinant barcode read abundance (log10)": 0.0285}, {"sequence": "CATTGCCCTTGGGTTCTAACCTGTTGCCT (site CTTTGCCCTAG)", "recombinant barcode read abundance (log10)": 0.0205}, {"sequence": "AAGTGCTCTTGGGTTCTAACCTGTTGCCT (site AAGTGCTCTAG)", "recombinant barcode read abundance (log10)": 2.34}, {"sequence": "ACGACTCCTTGGGTTCTAACCTGTTGCCT (site ACGACTCCTAG)", "recombinant barcode read abundance (log10)": 0.618}, {"sequence": "ACTAACCCTTGGGTTCTAACCTGTTGCCT (site ATTAACCCTAG)", "recombinant barcode read abundance (log10)": 0.074}, {"sequence": "CTCGGACCTTGGGTTCTAACCTGTTGCCT (site CTCGGACCTAG)", "recombinant barcode read abundance (log10)": 2.42}, {"sequence": "CGTAGGACTTGGGTTCTAACCTGTTGCCT (site AGTAGGACTAG)", "recombinant barcode read abundance (log10)": 0.0846}, {"sequence": "AGGCACTCTTGGGTTCTAACCTGTTGCTG (site AGGCACTCTCA)", "recombinant barcode read abundance (log10)": 2.35}, {"sequence": "TAGGCCACTTGGGTTCTAACCTGTTGCGT (site TAGGCCACTAA)", "recombinant barcode read abundance (log10)": 0.522}, {"sequence": "CGATTATCTTGGGTTCTAACCTGTTGCCT (site CGATTATCTAG)", "recombinant barcode read abundance (log10)": 0.0534}, {"sequence": "GCCTGGGCTTGGGTTCTAACCTGTTGCCG (site GCCTGGGCTCG)", "recombinant barcode read abundance (log10)": 0.72}, {"sequence": "CAGGGGACTTGGGTTCTAACCTGTTGCCA (site CCGTGGACTTG)", "recombinant barcode read abundance (log10)": 0.217}, {"sequence": "ATGAAGCCTTGGGTTCTAACCTGTTGCCT (site CTGAAGCCTAG)", "recombinant barcode read abundance (log10)": 0.053}, {"sequence": "GTGCTAACTTGGGTTCTAACCTGTTGCCA (site ATGCTAACTAG)", "recombinant barcode read abundance (log10)": 0.0637}, {"sequence": "CTAAAGCCTTGGGTTCTAACCTGTTGCCT (site CTAAAGCCTAG)", "recombinant barcode read abundance (log10)": 1.25}, {"sequence": "GAGCGAGCTTGGGTTCTAACCTGTTGCGG (site GAGCGAGCTCC)", "recombinant barcode read abundance (log10)": 1.13}, {"sequence": "CAGAGCACTTGGGTTCTAACCTGTTGCCT (site GAGAGCACTAG)", "recombinant barcode read abundance (log10)": 0.185}, {"sequence": "TGACCCTCTTGGGTTCTAACCTGTTGCCT (site TGACCCTCTAG)", "recombinant barcode read abundance (log10)": 2.39}, {"sequence": "AACCCTACTTGGGTTCTAACCTGTTGCCT (site AACCCTACTAG)", "recombinant barcode read abundance (log10)": 0.929}, {"sequence": "AACACTGCTTGGGTTCTAACCTGTTGCCT (site AACAATGCTAG)", "recombinant barcode read abundance (log10)": 0.0705}, {"sequence": "AGTACCTCTTGGGTTCTAACCTGTTGCCT (site ATTACCTCTAG)", "recombinant barcode read abundance (log10)": 0.0826}, {"sequence": "TGGGCGGCTTGGGTTCTAACCTGTTGCCT (site TGGGCGGCTAG)", "recombinant barcode read abundance (log10)": 0.411}, {"sequence": "ACCTAACCTTGGGTTCTAACCTGTTGCAG (site ACCTAACCTCT)", "recombinant barcode read abundance (log10)": 1.22}, {"sequence": "TTCGAGTCTTGGGTTCTAACCTGTTGCGG (site TGCGAGTCTAC)", "recombinant barcode read abundance (log10)": 0.0798}, {"sequence": "AGGCATCCTTGGGTTCTAACCTGTTGCCT (site ACGCATCCTAG)", "recombinant barcode read abundance (log10)": 0.202}, {"sequence": "TCGCGTACTTGGGTTCTAACCTGTTGCAT (site GCTCGTACTAT)", "recombinant barcode read abundance (log10)": 0.0605}, {"sequence": "TGGTTCGCTTGGGTTCTAACCTGTTGCCT (site TGGTACGCTAG)", "recombinant barcode read abundance (log10)": 0.0339}, {"sequence": "GTGTCTCCTTGGGTTCTAACCTGTTGCCG (site GTGTCTCCTCG)", "recombinant barcode read abundance (log10)": 0.0325}, {"sequence": "CAATCACCTTGGGTTCTAACCTGTTGCTT (site CAAGCACCTAA)", "recombinant barcode read abundance (log10)": 0.027}, {"sequence": "CTAATTACTTGGGTTCTAACCTGTTGCAC (site GTAACTACTGT)", "recombinant barcode read abundance (log10)": 0.114}, {"sequence": "TACCTAGCTTGGGTTCTAACCTGTTGCGT (site TACCTATCTAC)", "recombinant barcode read abundance (log10)": 0.433}, {"sequence": "GATAGGACTTGGGTTCTAACCTGTTGCCT (site GATGGGACTCG)", "recombinant barcode read abundance (log10)": 0}, {"sequence": "ACTGGGCCTTGGGTTCTAACCTGTTGCGA (site ACTGGGCCTTC)", "recombinant barcode read abundance (log10)": 2.67}, {"sequence": "ACTTGTTCTTGGGTTCTAACCTGTTGCCT (site GCTTGTTCTAG)", "recombinant barcode read abundance (log10)": 0.157}]}]}
